According to patent US9115143B2, “Substituted indole derivatives as gamma secretase modulators” (Janssen Pharmaceuticals, Inc., priority 2011, dated 2015):

Tests used:
[1] = test system: Aβ42; assay: Screening for γ-secretase-modulating activity: Aβ42 in supernatant of SKNBE2 cells carrying hAPP 695 wild type (Alphalisa); type: cell-based, human; settings: SKNBE2 human neuroblastoma cells carrying hAPP 695 wild type; overnight incubation; Alphalisa on supernatant
Method in brief: (§1)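 SKNBE2 human neuroblastoma cells expressing wild-type hAPP 695 (10^4/well) were incubated overnight at 37 °C, 5% CO2 with compound at several concentrations. Supernatant Aβ42 and Aβtotal measured by AlphaLISA sandwich immunoassays; IC50 from 4-parameter fit of percent of untreated control versus log concentration.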

[2] = test system: Aβtotal; assay: Screening for γ-secretase-modulating activity: Aβtotal in supernatant of SKNBE2 cells carrying hAPP 695 wild type (Alphalisa); type: cell-based, human; settings: overnight incubation, Alphalisa on supernatant
Method in brief: as §1

[3] = test system: Aβ42; assay: In vivo efficacy B-1b: brain soluble Aβ42, MSD electrochemiluminescence multiplex; settings: mouse brain soluble fraction, dose 30 mg/kg oral dosing, 4 h after dose; untreated control set at 100; read-out: Aβ42 (% vs Ctrl)_Mean
Text: (§2) To determine whether acute administration of an Aβ42 lowering agent would reduce Aβ42 levels in vivo, non-transgenic rodents, e.g. mice or rats were used. Animals treated with the Aβ42 lowering agent were examined and compared to those untreated or treated with vehicle and brain levels of soluble Aβ42, Aβ40, Aβ38, and Aβ37 were quantitated by Meso Scale Discovery's (MSD) electrochemiluminescence detection technology. Treatment periods varied from hours (h) to days and were adjusted based on the results of the Aβ42 lowering once a time course of onset of effect could be established.
(§3) A typical protocol for measuring Aβ42 lowering in vivo is shown but it is only one of many variations that could be used to optimize the levels of detectable Aβ. For example, Aβ42 lowering compounds were formulated in 20% of Captisol® (a sulfobutyl ether of β-cyclodextrin) in water or 20% hydroxypropyl β cyclodextrin. The Aβ42 lowering agents were administered as a single oral dose or by any acceptable route of administration to overnight fasted animals. After 4 h, the animals were sacrificed and Aβ42 levels were analysed.
(§4) Blood was collected by decapitation and exsanguinations in EDTA-treated collection tubes. Blood was centrifuged at 1900 g for 10 minutes (min) at 4° C. and the plasma recovered and flash frozen for later analysis. The brain was removed from the cranium and hindbrain. The cerebellum was removed and the left and right hemisphere were separated. The left hemisphere was stored at −18° C. for quantitative analysis of test compound levels. The right hemisphere was rinsed with phosphate-buffered saline (PBS) buffer and immediately frozen on dry ice and stored at −80° C. until homogenization for biochemical assays.
(§5) Mouse brains from non-transgenic animals were resuspended in 8 volumes of 0.4% DEA (diethylamine)/50 mM NaCl containing protease inhibitors (Roche-11873580001 or 04693159001) per gram of tissue, e.g. for 0.158 g brain, add 1.264 ml of 0.4% DEA. All samples were homogenized in the FastPrep-24 system (MP Biomedicals) using lysing matrix D (MPBio #6913-100) at 6 m/s for 20 seconds. Homogenates were centrifuged at 20800×g for 5 min and supernatants collected. Supernatants were centrifuged at 221.300×g for 50 min. The resulting high speed supernatants were then transferred to fresh eppendorf tubes. Nine parts of supernatant were neutralized with 1 part 0.5 M Tris-HCl pH 6.8 and used to quantify Aβ.
(§6) To quantify the amount of Aβ42, Aβ40, Aβ38, and Aβ37 in the soluble fraction of the brain homogenates, simultaneous specific detection of Aβ42, Aβ40, Aβ38, and Aβ37 was performed using MSD's electro-chemiluminescence multiplex detection technology. In this assay purified monoclonal antibodies specific for Abeta37 (JRD/Aβ37/3), Abeta38 (J&JPRD/Aβ38/5), Abeta40 (JRF/cAβ40/28), and Abeta42 (JRF/cAβ42/26) were coated on MSD 4-plex plates. Briefly, the standards (a dilution of synthetic Aβ42, Aβ40, Aβ38, and Aβ37) were prepared in 1.5 ml Eppendorf tube in Ultraculture, with final concentrations ranging from 10000 to 0.3 pg/m. The samples and standards were co-incubated with Sulfo-tag labelled JRF/rAβ/2 antibody to the N-terminus of Aβ as detector antibody. 50 μl of conjugate/sample or conjugate/standards mixtures were then added to the antibody-coated plate. The plate was allowed to incubate overnight at 4° C. in order to allow formation of the antibody-amyloid complex. Following this incubation and subsequent wash steps the assay was finished by adding read buffer according to the manufacturer's instructions (Meso Scale Discovery, Gaitherburg, Md.).
(§7) The SULFO-TAG emits light upon electrochemical stimulation initiated at the electrode. MSD Sector instrument SI6000 was used for signal read-out.
In this model a Aβ42 lowering compared to untreated animals would be advantageous, in particular a Aβ42 lowering with at least 10%, more in particular a Aβ42 lowering with at least 20%. […]

[4] = test system: Aβ40; assay: In vivo efficacy B-1b/B-2b: brain soluble Aβ40, MSD electrochemiluminescence multiplex; settings: mouse brain soluble fraction, dose 30 mg/kg oral dosing, 4 h after dose; untreated control set at 100; read-out: Aβ40 (% vs Ctrl)_Mean
Text: as §2, §3, §4, §5, §6, §7
The results are shown in Table 5 (dose 30 mg/kg oral dosing) (value for untreated animals as control (Ctrl) was set at 100): […]

[5] = test system: Aβ38; assay: In vivo efficacy B-2b: brain soluble Aβ38, MSD electrochemiluminescence multiplex; settings: mouse brain soluble fraction, dose 30 mg/kg oral dosing, 4 h after dose; untreated control set at 100; read-out: Aβ38 (% vs Ctrl)_Mean
Text: as §2, with “Aβ38 increasing agents” for “Aβ42 lowering agent”, “increase Aβ38” for “reduce Aβ42”, “MSD” for “Meso Scale Discovery's (MSD)”, “Aβ38 increase” for “Aβ42 lowering”
as §3, with “measuring Aβ38 increase” for “measuring Aβ42 lowering”, “example, Aβ38 increasing agents” for “example, Aβ42 lowering compounds”, “The Aβ38 increasing” for “The Aβ42 lowering”, “and Aβ38” for “and Aβ42”
as §4, §5, §6, §7
In this model a Aβ38 increase compared to untreated animals would be advantageous, in particular a Aβ38 increase with at least 10%, more in particular a Aβ38 increase with at least 20%. […]

[6] = Homo sapiens, SKNBE2, SKNBE2 human neuroblastoma cells carrying hAPP 695 wild type
[7] = SKNBE2 human neuroblastoma cells carrying hAPP 695 wild type

| SMILES | IC50 [1] | IC50 [2, 6] | response vs control in vivo at 30 mg/kg [3] | response vs control in vivo at 30 mg/kg [4] | response vs control in vivo at 30 mg/kg [5] | IC50 [2, 7] | melting point |
| --- | --- | --- | --- | --- | --- | --- | --- |
| COc1c(C#N)ccc2[nH]c(-c3cn4c(n3)C(c3ccccc3C(F)(F)F)OCC4)cc12 (single isomer, unassigned) [Compound 44, 2-[5,6-dihydro-8-[2-(trifluoromethyl)phenyl]-8H-imidazo[2,1-c][1,4]oxazin-2-yl]-4-methoxy-1H-indole-5-carbonitrile] | 21 nM | > 10000 nM | 27% | 31% | 110% | – | – |
| COc1c(C#N)ccc2[nH]c(-c3nc4n(n3)CCOC4c3ccccc3C(F)(F)F)cc12 (single isomer, unassigned) [Compound 56, 2-[5,6-dihydro-8-[2-(trifluoromethyl)phenyl]-8H-[1,2,4]triazolo[5,1-c][1,4]oxazin-2-yl]-4-methoxy-1H-indole-5-carbonitrile] | 45 nM | > 10000 nM | 54% | 91% | 139% | – | – |
| COc1c(C#N)ccc2[nH]c(-c3cn4c(n3)C(c3c(F)cccc3Cl)OCC4)cc12 (single isomer, unassigned) [Compound 122, 2-[8-(2-chloro-6-fluorophenyl)-5,6-dihydro-8H-imidazo[2,1-c][1,4]oxazin-2-yl]-4-methoxy-1H-indole-5-carbonitrile] | 39 nM | > 10000 nM | 74% | 90% | 145% | – | – |
| COc1c(C#N)ccc2[nH]c(-c3cn4c(n3)C(c3cccc(F)c3C(F)(F)F)OCC4)cc12 (single isomer, unassigned) [Compound 131, 2-[8-[3-fluoro-2-(trifluoromethyl)phenyl]-5,6-dihydro-8H-imidazo[2,1-c][1,4]oxazin-2-yl]-4-methoxy-1H-indole-5-carbonitrile] | 27 nM | 6460 nM | 62% | 72% | 144% | – | – |
| COc1c(C#N)ccc2[nH]c(-c3nc4n(n3)CCOC4c3cccc(F)c3C(F)(F)F)cc12 (single isomer, unassigned) [Compound 133, 2-[8-[3-fluoro-2-(trifluoromethyl)phenyl]-5,6-dihydro-8H-[1,2,4]triazolo[5,1-c][1,4]oxazin-2-yl]-4-methoxy-1H-indole-5-carbonitrile] | 59 nM | > 10000 nM | 98% | 107% | 119% | – | – |
| COc1c(C#N)ccc2[nH]c(-c3nc4n(n3)CCOC4c3cccc(C)c3F)cc12 (single isomer, unassigned) [Compound 148, 2-[8-(2-fluoro-3-methylphenyl)-5,6-dihydro-8H-[1,2,4]triazolo[5,1-c][1,4]oxazin-2-yl]-4-methoxy-1H-indole-5-carbonitrile] | 74 nM | > 10000 nM | 110% | 118% | 132% | – | – |
| COc1c(C#N)ccc2[nH]c(-c3cn4c(n3)C(c3cccc(F)c3C)OCC4)cc12 (stereo not shown) [Compound 41, 2-[8-(3-fluoro-2-methylphenyl)-5,6-dihydro-8H-imidazo[2,1-c][1,4]oxazin-2-yl]-4-methoxy-1H-indole-5-carbonitrile] | 20 nM | – | 34% | 35% | 140% | > 10000 nM | – |
| COc1c(C#N)ccc2[nH]c(-c3cn4c(n3)C(c3ccccc3Cl)OCC4)cc12 (stereo not shown) [Compound 50, 2-[8-(2-chlorophenyl)-5,6-dihydro-8H-imidazo[2,1-c][1,4]oxazin-2-yl]-4-methoxy-1H-indole-5-carbonitrile] | 31 nM | – | 43% | 46% | 141% | > 10000 nM | 254.3 °C |
| COc1c(C#N)ccc2[nH]c(-c3nc4n(n3)CCCOC4c3ccc(F)cc3C)cc12 (stereo not shown) [Compound 53, 2-[9-(4-fluoro-2-methylphenyl)-6,7-dihydro-5H,9H-[1,2,4]triazolo[5,1-c][1,4]oxazepin-2-yl]-4-methoxy-1H-indole-5-carbonitrile] | 35 nM | – | 74% | 79% | 78% | > 10000 nM | – |
| COc1c(C#N)ccc2[nH]c(-c3cn4c(n3)C(c3c(F)cccc3C(F)(F)F)OCC4)cc12 (stereo not shown) [Compound 153, 2-[8-[2-fluoro-6-(trifluoromethyl)phenyl]-5,6-dihydro-8H-imidazo[2,1-c][1,4]oxazin-2-yl]-4-methoxy-1H-indole-5-carbonitrile] | 36 nM | – | 60% | 76% | 236% | > 10000 nM | – |
| COc1c(C#N)ccc2[nH]c(-c3cn4c(n3)C(c3ccc(F)c(Cl)c3)OCC4)cc12 (stereo not shown) [Compound 154, 2-[8-(3-chloro-4-fluorophenyl)-5,6-dihydro-8H-imidazo[2,1-c][1,4]oxazin-2-yl]-4-methoxy-1H-indole-5-carbonitrile] | 65 nM | – | 90% | 101% | 170% | > 10000 nM | – |
| COc1c(C#N)ccc2[nH]c(-c3cn4c(n3)C(c3cc(C(F)(F)F)ccc3F)OCC4)cc12 (stereo not shown) [Compound 164, 2-[8-[2-fluoro-5-(trifluoromethyl)phenyl]-5,6-dihydro-8H-imidazo[2,1-c][1,4]oxazin-2-yl]-4-methoxy-1H-indole-5-carbonitrile] | 41 nM | – | 65% | 81% | 141% | > 10000 nM | – |
